Assay results reported in patent US9682991B2, “Tricyclic compounds for use as kinase inhibitors” (FUNDACIÓN CENTRO NACIONAL DE INVESTIGACIONES ONCOLOGICAS …, priority 2009, dated 2017).
Read-outs that look alike come from different tables or passages of the source.

What was measured:
PIM-2 = PIM-2 (Homo sapiens (Human), UniProt Q9P1W9); test: PIM-2 biochemical assay (ADP Hunter); settings: semi-quantitative; read-out: PIM2 IC50
Excerpt: The biochemical assay to measure PIM-2 activity relies on the ADP Hunter assay kit (DiscoveRx Corp., Cat. #90-0077), that determines the amount of ADP as direct product of the kinase enzyme activity.

PIM-1 = PIM-1 (Homo sapiens (Human), UniProt P11309); test: PIM-1 biochemical assay (ADP Hunter)
Sequence of PIM-1 (P11309 whole entry): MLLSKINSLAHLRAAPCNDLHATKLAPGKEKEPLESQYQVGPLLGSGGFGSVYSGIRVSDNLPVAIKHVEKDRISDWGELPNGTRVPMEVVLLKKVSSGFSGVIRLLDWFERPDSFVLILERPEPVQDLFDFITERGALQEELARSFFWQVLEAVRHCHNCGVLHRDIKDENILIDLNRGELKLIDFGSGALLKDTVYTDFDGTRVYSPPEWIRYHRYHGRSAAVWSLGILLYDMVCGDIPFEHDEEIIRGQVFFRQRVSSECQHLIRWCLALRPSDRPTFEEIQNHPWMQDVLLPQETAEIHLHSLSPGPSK

[1] = system: Bad S112 phosphorylation in H1299 cells overexpressing Pim1 (H1299Pim1); test: Bad S112 phosphorylation inhibition assay (In Cell ELISA); format: cell-based; settings: Homo sapiens, NCI-H1299, semi-quantitative, read-out: EC50 BadP ELISA H1299 Pim1
Protocol: Efficacy of compounds of the invention on the inhibition of Bad phosphorylation was measured by an In Cell ELISA. EC50 values were established for the tested compounds.
Cells: H1299 cells overexpressing Pim1 (H1299Pim1)
Cells were seeded in 15000 cells per 200 μl per well into 96-well plates and incubated for 16 h at 37° C., 5% CO2. On day two, nine serial 1:2 compound dilutions were made in DMSO in a 96-well plate. The compounds were added to duplicate wells in 96-well cell plates using a FX BECKMAN robot (Beckman Coulter) and incubated at 37° C. with CO2 atmosphere. After 4 hours, relative levels of Bad S112 phosphorylation were measured in Cell ELISA using SuperSignal ELISA Femto substrate (Pierce) and read on VICTOR (Perkin Elmer). EC50 values were calculated using ActivityBase from IDBS.

PIM-3 = PIM-3 (Homo sapiens (Human), UniProt Q86V86); test: PIM-3 biochemical assay (ADP Hunter); settings: semi-quantitative; read-out: PIM3 IC50
[2] = read-out: PIM1 IC50, semi-quantitative

Sequence of PIM-2 (Q9P1W9 whole entry): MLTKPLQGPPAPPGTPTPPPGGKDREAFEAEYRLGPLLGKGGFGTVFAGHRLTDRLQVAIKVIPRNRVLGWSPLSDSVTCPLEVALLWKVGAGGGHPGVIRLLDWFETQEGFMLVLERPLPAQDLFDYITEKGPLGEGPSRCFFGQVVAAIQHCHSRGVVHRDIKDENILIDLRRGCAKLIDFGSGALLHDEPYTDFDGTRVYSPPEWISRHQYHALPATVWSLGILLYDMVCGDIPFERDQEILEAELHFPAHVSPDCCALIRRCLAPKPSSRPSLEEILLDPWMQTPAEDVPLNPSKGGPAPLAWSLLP

Compound	IC50 (PIM-2)	IC50 (PIM-1)	IC50 (PIM-1; read-out: PIM1 IC50)	EC50 [1]	IC50 (PIM-1; [2])	IC50 (PIM-3)
CN1CCOc2c1c(NCc1ccc(F)cc1)nn1c(-c3cccc(OC(F)(F)F)c3)nnc21 [Example 9, (4-Fluoro-benzyl)-[6-methyl-3-(3-trifluoromethoxy-phenyl)-7,8-dihydro-6H-9-oxa-1,2,3a,4,6-pentaaza-cyclopenta[a]naphthalen-5-yl]-amine]	> 1000 nM	< 100 nM	52.4 nM	1000 to 10000 nM	–	–
CCN1CCOc2c1c(NCC1CCN(C)CC1)nn1c(-c3cccc(OC(F)(F)F)c3)nnc21 [Example 12, [6-Ethyl-3-(3-trifluoromethoxy-phenyl)-7,8-dihydro-6H-9-oxa-1,2,3a,4,6-pentaaza-cyclopenta[a]naphthalen-5-yl]-(1-methyl-piperidin-4-ylmethyl)-amine]	–	–	–	< 250 nM	< 100 nM	–
CN1CCOc2c1c(NCCCO)nn1c(-c3cccc(OC(F)(F)F)c3)nnc21 [Example 21, 3-[6-Methyl-3-(3-trifluoromethoxy-phenyl)-7,8-dihydro-6H-9-oxa-1,2,3a,4,6-pentaaza-cyclopenta[a]naphthalen-5-ylamino]-propan-1-ol]	100 to 1000 nM	–	–	–	< 100 nM	100 to 1000 nM
CN1CCOc2c1c(NC1CCOCC1)nn1c(-c3cccc(OC(F)(F)F)c3)nnc21 [Example 23, [6-Methyl-3-(3-trifluoromethoxy-phenyl)-7,8-dihydro-6H-9-oxa-1,2,3a,4,6-pentaaza-cyclopenta[a]naphthalen-5-yl]-(tetrahydro-pyran-4-yl)-amine]	< 100 nM	–	–	–	< 100 nM	100 to 1000 nM
CN1CCOc2c1c(NCCc1cccnc1)nn1c(-c3cccc(OC(F)(F)F)c3)nnc21 [Example 26, [6-Methyl-3-(3-trifluoromethoxy-phenyl)-7,8-dihydro-6H-9-oxa-1,2,3a,4,6-pentaaza-cyclopenta[a]naphthalen-5-yl]-(2-pyridin-3-yl-ethyl)-amine]	100 to 1000 nM	–	–	–	–	100 to 1000 nM
CN1CCC(CNc2nn3c(-c4cccc(C(F)(F)F)c4)nnc3c3c2N(C)CCO3)CC1 [Example 32, (1-Methyl-piperidin-4-ylmethyl)-[6-methyl-3-(3-trifluoromethyl-phenyl)-7,8-dihydro-6H-9-oxa-1,2,3a,4,6-pentaaza-cyclopenta[a]naphthalen-5-yl]-amine]	100 to 1000 nM	–	–	–	< 100 nM	< 100 nM
CN1CCC(CNc2nn3c(-c4cccc(OC(F)(F)F)c4)nnc3c3c2CCCC3)CC1 [Example 37, (1-Methyl-piperidin-4-ylmethyl)-[3-(3-trifluoromethoxy-phenyl)-7,8,9,10-tetrahydro-[1,2,4]triazolo[3,4-a]phthalazin-6-yl]-amine]	–	–	–	1000 to 10000 nM	–	–
CN1CCOc2c1c(NCC1CCC(O)CC1)nn1c(-c3cccc(OC(F)(F)F)c3)nnc21 (stereo not drawn) [Example 43, 4-{[6-Methyl-3-(3-trifluoromethoxy-phenyl)-7,8-dihydro-6H-9-oxa-1,2,3a,4,6-pentaaza-cyclopenta[a]naphthalen-5-ylamino]-methyl}-cyclohexanol]	–	–	–	–	< 100 nM	< 100 nM
CN1CCOc2c1c(NC1CC3(CCNCC3)C1)nn1c(-c3cccc(OC(F)(F)F)c3)nnc21 [Example 49, (7-Aza-spiro[3.5]non-2-yl)-[6-methyl-3-(3-trifluoromethoxy-phenyl)-7,8-dihydro-6H-9-oxa-1,2,3a,4,6-pentaaza-cyclopenta[a]naphthalen-5-yl]-amine]	–	–	–	250 to 1000 nM	< 100 nM	–
CN1CCOc2c1c(NCC13CCN(CC1)C3)nn1c(-c3cccc(OC(F)(F)F)c3)nnc21 [Example 54, (1-Aza-bicyclo[2.2.1]hept-4-ylmethyl)-[6-methyl-3-(3-trifluoromethoxy-phenyl)-7,8-dihydro-6H-9-oxa-1,2,3a,4,6-pentaaza-cyclopenta[a]naphthalen-5-yl]-amine]	–	–	–	250 to 1000 nM	–	–
CN1CCOc2c1c(N1CCC(CN)CC1)nn1c(-c3cccc(OC(F)(F)F)c3)nnc21 [Example 55, C-{1-[6-Methyl-3-(3-trifluoromethoxy-phenyl)-7,8-dihydro-6H-9-oxa-1,2,3a,4,6-pentaaza-cyclopenta[a]naphthalen-5-yl]-piperidin-4-yl}-methylamine]	–	–	–	–	< 100 nM	< 100 nM
CN1CCOc2c1c(NCC1CC3(CCNCC3)C1)nn1c(-c3cccc(OC(F)(F)F)c3)nnc21 [Example 59]	–	–	–	250 to 1000 nM	–	–
CN1CCC(CNc2nn3c(-c4cccc(OC(F)(F)F)c4)nnc3c3c2OCC(C)(C)N3C)CC1 [Example 72, (1-Methyl-piperidin-4-ylmethyl)-[8,8,9-trimethyl-3-(3-trifluoromethoxy-phenyl)-8,9-dihydro-7H-6-oxa-1,2,3a,4,9-pentaaza-cyclopenta[a]naphthalen-5-yl]-amine]	> 1000 nM	100 to 1000 nM	–	–	–	100 to 1000 nM
CN1CCC(CNc2nn3c(-c4ccc(O)cc4)nnc3c3c2N(C)CCO3)CC1 [Example 84, 4-{6-Methyl-5-[(1-methyl-piperidin-4-ylmethyl)-amino]-7,8-dihydro-6H-9-oxa-1,2,3a,4,6-pentaaza-cyclopenta[a]naphthalen-3-yl}-phenol]	> 1000 nM	100 to 1000 nM	–	–	–	–
CC(C)NCC1CCN(c2nn3c(-c4cccc(OC(F)(F)F)c4)nnc3c3c2N(C)CCO3)CC1 [Example 85, Isopropyl-{1-[6-methyl-3-(3-trifluoromethoxy-phenyl)-7,8-dihydro-6H-9-oxa-1,2,3a,4,6-pentaaza-cyclopenta[a]naphthalen-5-yl]-piperidin-4-ylmethyl}-amine]	100 to 1000 nM	–	–	–	< 100 nM	100 to 1000 nM
CCN1CCC(CNc2nn3c(-c4cccc(OC(F)(F)F)c4)nnc3c3c2N(C)CCO3)CC1 [Example 91, (1-Ethyl-piperidin-4-ylmethyl)-[6-methyl-3-(3-trifluoromethoxy-phenyl)-7,8-dihydro-6H-9-oxa-1,2,3a,4,6-pentaaza-cyclopenta[a]naphthalen-5-yl]-amine]	–	–	–	250 to 1000 nM	–	–
COc1ccc(-c2nnc3c4c(c(N5CCC(CNC(C)=O)CC5)nn23)N(C)CCO4)cc1 [Example 92, N-{1-[3-(4-Methoxy-phenyl)-6-methyl-7,8-dihydro-6H-9-oxa-1,2,3a,4,6-pentaaza-cyclopenta[a]naphthalen-5-yl]-piperidin-4-ylmeth I}-acetamide]	> 1000 nM	–	–	–	> 1000 nM	–
CN1CCN(C)c2c1c(NCc1ccc(F)cc1)nn1c(-c3ccc(O)cc3)nnc21 [Example 94, 4-[5-(4-Fluoro-benzylamino)-6,9-dimethyl-6,7,8,9-tetrahydro-1,2,3a,4,6,9-hexaaza-cyclopenta[a]naphthalen-3-yl]-phenol]	> 1000 nM	100 to 1000 nM	–	–	< 100 nM	–
CC(=O)N1CCN(CCNc2nn3c(-c4cccc(OC(F)(F)F)c4)nnc3c3c2OCCN3C)CC1 [Example 95, 1-(4-{2-[9-Methyl-3-(3-trifluoromethoxy-phenyl)-8,9-dihydro-7H-6-oxa-1,2,3a,4,9-pentaaza-cyclopenta[a]naphthalen-5-ylamino]-ethyl}-piperazin-1-yl)-ethanone]	> 1000 nM	–	–	–	> 1000 nM	–
CN1CCOc2c(NCCN3CCN(S(C)(=O)=O)CC3)nn3c(-c4cccc(OC(F)(F)F)c4)nnc3c21 [Example 96, [2-(4-Methanesulfonyl-piperazin-1-yl)-ethyl]-[9-methyl-3-(3-trifluoromethoxy-phenyl)-8,9-dihydro-7H-6-oxa-1,2,3a,4,9-pentaaza-cyclopenta[a]naphthalen-5-yl]-amine]	> 1000 nM	100 to 1000 nM	–	–	–	–
CN1CCOc2c1c(N(C)C1CCOCC1)nn1c(-c3cccc(OC(F)(F)F)c3)nnc21 [Example 97, Methyl-[6-methyl-3-(3-trifluoromethoxy-phenyl)-7,8-dihydro-6H-9-oxa-1,2,3a,4,6-pentaaza-cyclopenta[a]naphthalen-5-yl]-(tetrahydro-pyran-4-yl)-amine]	100 to 1000 nM	–	–	–	< 100 nM	< 100 nM
CN(CCN1CCOCC1)c1nn2c(-c3cccc(OC(F)(F)F)c3)nnc2c2c1N(C)CCO2 [Example 98, Methyl-[6-methyl-3-(3-trifluoromethoxy-phenyl)-7,8-dihydro-6H-9-oxa-1,2,3a,4,6-pentaaza-cyclopenta[a]naphthalen-5-yl]-(2-morpholin-4-yl-ethyl)-amine]	100 to 1000 nM	–	–	–	< 100 nM	100 to 1000 nM
FC(F)(F)Oc1cccc(-c2nnc3c4c(c(NCC5CC5)nn23)OCCO4)c1 [Example 102, Cyclopropylmethyl-[3-(3-trifluoromethoxy-phenyl)-7,8-dihydro-6,9-dioxa-1,2,3a,4-tetraaza-cyclopenta[a]naphthalen-5-yl]-amine]	< 100 nM	–	–	–	< 100 nM	–
CN1CCOc2c1c(NCC1CC[N+](C)([O-])CC1)nn1c(-c3cccc(OC(F)(F)F)c3)nnc21 (stereo not drawn) [Example 103, (1-Methyl-1-oxy-pipe-din-4-ylmethyl)-[6-methyl-3-(3-trifluoromethoxy-phenyl)-7,8-dihydro-6H-9-oxa-1,2,3a,4,6-pentaaza-cyclopenta[a]naphthalen-5-yl]-amine]	> 1000 nM	–	–	–	< 100 nM	–
